Drawing on US20240368191A1, “HETEROCYCLIC COMPOUNDS AND USES THEREOF” (Kumquat Biosciences Inc., priority 2021, published 2024), this text covers half-life for 14 molecules.

The data set can be described thus: Metabolic (microsomal) stability assay. To be noted: pooled liver microsomes, pH 7.4.
With `Nc1nc2c(-c3c(Cl)cc4c(N5CC6(CN(C(=O)n7cncn7)CCO6)C5)nc(OC[C@@]56CCCN5C[C@H](F)C6)nc4c3F)ccc(F)c2s1` [Compound A268, (2-(7-(2-amino-7-fluorobenzo-[d]thiazol-4-yl)-6-chloro-8-fluoro-2-(((2R,7aS)-2-fluoro-tetrahydro-1H-pyrrolizin-7a(5H)-yl)methoxy)quinazolin-4-yl)-5-oxa-2,8-diazaspiro[3.5]-nonan-8-yl)(1H-1,2,4-triazol-1-yl)methanone], the half-life at 0.5 μM is above 10 min.

The molecule `C[C@@H]1CN(C(=O)n2cncn2)[C@@H](C)CN1c1nc(OC[C@@]23CCCN2C[C@H](F)C3)nc2c(F)c(-c3ccc(F)c4sc(N)nc34)c(Cl)cc12` [Compound A244, ((2S,5R)-4-(7-(2-amino-7-fluorobenzo[d]thiazol-4-yl)-6-chloro-8-fluoro-2-(((2R,7aS)-2-fluorotetrahydro-1H-pyrrolizin-7a(5H)-yl)methoxy)quinazolin-4-yl)-2,5-dimethylpiperazin-1-yl)(1H-1,2,4-triazol-1-yl)meth-anone] gave a half-life at 0.5 μM above 10 min.

In turn, `Nc1nc2c(-c3c(Cl)cc4c(N5CCC6(CN(C(=O)n7cncn7)C6)C5)nc(OC[C@@]56CCCN5C[C@H](F)C6)nc4c3F)ccc(F)c2s1` [Compound A201, (6-(7-(2-amino-7-fluorobenzo-[d]thiazol-4-yl)-6-chloro-8-fluoro-2-(((2R,7aS)-2-fluoro-tetrahydro-1H-pyrrolizin-7a(5H)-yl)methoxy)quinazolin-4-yl)-2,6-diazaspiro[3.4]octan-2-yl)(1H-1,2,4-triazol-1-yl)-methanone] showed a half-life at 0.5 μM above 10 min.

In the case of `N#Cc1c(N)sc2c(F)ccc(-c3c(Cl)cc4c(N5CCOC6(CN(C(=O)n7cncn7)C6)C5)nc(OC[C@@]56CCCN5C[C@H](F)C6)nc4c3F)c12` [Compound A132, 4-(4-(2-(1H-1,2,4-triazole-1-carbonyl)-5-oxa-2,8-diaza-spiro[3.5]nonan-8-yl)-6-chloro-8-fluoro-2-(((2R,7aS)-2-fluorotetrahydro-1H-pyrrolizin-7a(5H)-yl)methoxy)quinazolin-7-yl)-2-amino-7-fluorobenzo-[b]thiophene-3-carbonitrile], the half-life at 0.5 μM was above 10 min.

The molecule `N#Cc1c(N)sc2c(F)ccc(-c3c(Cl)cc4c(N5CCC6CN(C(=O)n7cncn7)CC65)nc(OC[C@@]56CCCN5C[C@H](F)C6)nc4c3F)c12` (stereo partly drawn) [Compound A178, 4-(4-(5-(1H-1,2,4-triazole-1-carbonyl)hexahydropyrrolo[3,4-b]pyrrol-1(2H)-yl)-6-chloro-8-fluoro-2-(((2R,7aS)-2-fluoro-tetrahydro-1H-pyrrolizin-7a(5H)-yl)methoxy)quinazolin-7-yl)-2-amino-7-fluorobenzo-[b]thiophene-3-carbonitrile] had a half-life at 0.5 μM above 10 min.

`Nc1nc2c(-c3c(Cl)cc4c(N5CCCC6(CN(C(=O)n7cncn7)C6)C5)nc(OC[C@@]56CCCN5C[C@H](F)C6)nc4c3F)ccc(F)c2s1` [Compound A136, (6-(7-(2-amino-7-fluorobenzo-[d]thiazol-4-yl)-6-chloro-8-fluoro-2-(((2R,7aS)-2-fluoro-tetrahydro-1H-pyrrolizin-7a(5H)-yl)methoxy)quinazolin-4-yl)-2,6-diazaspiro[3.5]nonan-2-yl)(1H-1,2,4-triazol-1-yl)-methanone] registered a half-life at 0.5 μM above 10 min.

Consider `N#Cc1c(N)sc2c(F)ccc(-c3c(Cl)cc4c(N5CC6CCCN(C(=O)n7cncn7)C6C5)nc(OC[C@@]56CCCN5C[C@H](F)C6)nc4c3F)c12` (stereo partly drawn) [Compound A284, 4-(4-(1-(1H-1,2,4-triazole-1-carbonyl)octahydro-6H-pyrrolo-[3,4-b]pyridin-6-yl)-6-chloro-8-fluoro-2-(((2R,7aS)-2-fluoro-tetrahydro-1H-pyrrolizin-7a(5H)-yl)methoxy)quinazolin-7-yl)-2-amino-7-fluorobenzo-[b]thiophene-3-carbonitrile], for which the half-life at 0.5 μM is above 10 min.

`Nc1nc2c(-c3c(Cl)cc4c(N5CCOC6(CN(C(=O)n7cncn7)C6)C5)nc(OC[C@@]56CCCN5C[C@H](F)C6)nc4c3F)ccc(F)c2s1` [Compound A273, (8-(7-(2-amino-7-fluorobenzo-[d]thiazol-4-yl)-6-chloro-8-fluoro-2-(((2R,7aS)-2-fluoro-tetrahydro-1H-pyrrolizin-7a(5H)-yl)methoxy)quinazolin-4-yl)-5-oxa-2,8-diazaspiro[3.5]-nonan-2-yl)(1H-1,2,4-triazol-1-yl)methanone] showed a half-life at 0.5 μM above 10 min.

Molecule `N#CC[C@H]1CN(c2nc(OC[C@@]34CCCN3C[C@H](F)C4)nc3c(F)c(-c4ccc(F)c5sc(N)nc45)c(Cl)cc23)CCN1C(=O)n1cncn1` [Compound A145, 2-((2S)-4-(7-(2-amino-7-fluorobenzo[d]thiazol-4-yl)-6-chloro-8-fluoro-2-(((2R,7aS)-2-fluorotetrahydro-1H-pyrrolizin-7a(5H)-yl)methoxy)quinazolin-4-yl)-1-(1H-1,2,4-triazole-1-carbonyl)piperazin-2-yl)aceto-nitrile] yielded a half-life at 0.5 μM above 10 min.

The molecule `Cc1ncn(C(=O)N2CCCC(Oc3nc(OC[C@@]45CCCN4C[C@H](F)C5)nc4c(F)c(-c5ccc(F)c6sc(N)c(C#N)c56)c(Cl)cc34)CC2)n1` (stereo partly drawn) [Compound A174, 2-amino-4-(6-chloro-8-fluoro-2-(((2R,7aS)-2-fluorotetra-hydro-1H-pyrrolizin-7a(5H)-yl)methoxy)-4-((1-(3-methyl-1H-1,2,4-triazole-1-carbonyl)-azepan-4-yl)oxy)quinazolin-7-yl)-7-fluorobenzo[b]thiophene-3-carbonitrile] had a half-life at 0.5 μM above 10 min.

Molecule `Nc1nc2c(-c3c(Cl)cc4c(N5CCN(C(=O)n6cncn6)CC5)nc(OC[C@@]56CCCN5C[C@H](F)C6)nc4c3F)ccc(F)c2s1` [Compound A146, (4-(7-(2-amino-7-fluorobenzo-[d]thiazol-4-yl)-6-chloro-8-fluoro-2-(((2R,7aS)-2-fluoro-tetrahydro-1H-pyrrolizin-7a(5H)-yl)methoxy)quinazolin-4-yl)piperazin-1-yl)(1H-1,2,4-triazol-1-yl)methanone] returned a half-life at 0.5 μM above 10 min.

`C#Cc1c(F)ccc2cc(O)cc(-c3ncc4c(N5CCOC6(CN(C(=O)n7cncn7)C6)C5)nc(OC[C@@]56CCCN5C[C@H](F)C6)nc4c3F)c12` [Compound A106, (8-(7-(8-ethynyl-7-fluoro-3-hydroxynaphthalen-1-yl)-8-fluoro-2-(((2R,7aS)-2-fluoro-tetrahydro-1H-pyrrolizin-7a(5H)-yl)methoxy)pyrido-[4,3-d]pyrimidin-4-yl)-5-oxa-2,8-diazaspiro[3.5]nonan-2-yl)(1H-1,2,4-triazol-1-yl)-methanone] gave a half-life at 0.5 μM above 10 min.

`N#Cc1c(N)sc2c(F)ccc(-c3c(Cl)cc4c(N5CCC6(CN(C(=O)n7cncn7)C6)C5)nc(OC[C@@]56CCCN5C[C@H](F)C6)nc4c3F)c12` [Compound A277, 4-(4-(2-(1H-1,2,4-triazole-1-carbonyl)-2,6-diazaspiro[3.4]-octan-6-yl)-6-chloro-8-fluoro-2-(((2R,7aS)-2-fluorotetrahydro-1H-pyrrolizin-7a(5H)-yl)meth-oxy)quinazolin-7-yl)-2-amino-7-fluorobenzo[b]thiophene-3-carbonitrile]: the half-life at 0.5 μM was above 10 min.

Consider `N#Cc1c(N)sc2c(F)ccc(-c3c(Cl)cc4c(N5CCC6CN(C(=O)Nc7ncccn7)CCC65)nc(OC[C@@]56CCCN5C[C@H](F)C6)nc4c3F)c12` (single isomer, unassigned) [Compound A271], for which the half-life at 0.5 μM is above 10 min.
